Experimental data: ChEMBL document CHEMBL1201862, “PubChem BioAssay data set” (2004)
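Interpolation was linear, between the two tested concentrations surrounding the appropriate level; five concentrations were tested over 48 hours in 96-well plates. GI50 = concentration required for 50% inhibition of growth.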 Calls of active or inactive are those of the source. Cut-off read from the data, not from the text of the source: active = GI50 up to about 1.1 µM and inactive = higher.

Legend:
Assay in all cases: DTP human tumour cell line panel, 48 h
SK-OV-3 = system: SK-OV-3
HCT-15 = system: HCT-15
SF-539 = system: SF-539
PC-3 = system: PC-3
UACC-257 = system: UACC-257
HCC 2998 = system: HCC 2998
IGROV-1 = system: IGROV-1
HT-29 = system: HT-29
A498 = system: A498
OVCAR-8 = system: OVCAR-8
HOP-62 = system: HOP-62
SN12C = system: SN12C
EKVX = system: EKVX
MOLT-4 = system: MOLT-4
ACHN = system: ACHN
Hs-578T = system: Hs-578T
SK-MEL-2 = system: SK-MEL-2
T47D = system: T47D
CAKI-1 = system: CAKI-1

Structure (SMILES) | GI50 (SK-OV-3) | GI50 (HCT-15) [µM] | GI50 (SF-539) | GI50 (PC-3) | GI50 (UACC-257) | GI50 (HCC 2998) | GI50 (IGROV-1) | GI50 (HT-29) | GI50 (A498) | GI50 (OVCAR-8) | GI50 (HOP-62) | GI50 (SN12C) | GI50 (EKVX) | GI50 (MOLT-4) | GI50 (ACHN) | GI50 (Hs-578T) | GI50 (SK-MEL-2) | GI50 (T47D) | GI50 (CAKI-1)
CC(C)(Cl)C(Br)CC/C(=C/CCl)CBr.CC(C)(Cl)C(Br)CC/C(=C\CCl)CBr (stereo unspecified) | 16.9 µM (inactive) | 1.43 | 1.88 µM (inactive) | 2.61 µM (inactive) | 2.5 µM (inactive) | 1.58 µM (inactive) | 2.31 µM (inactive) | 1.85 µM (inactive) | 4.94 µM (inactive) | 2.06 µM (inactive) | 4.1 µM (inactive) | 2.49 µM (inactive) | 8.97 µM (inactive) | 1.34 µM (inactive) | 2.77 µM (inactive) | 3.67 µM (inactive) | 3.21 µM (inactive) | 1.08 µM (active) | –
CCC1c2[nH]c3ccccc3c2C[C@H]2C(=O)N3CCC[C@H]3C(=O)N12 (stereo partly specified) | > 100 µM (inactive) | 53.7 | – | 37.4 µM (inactive) | 48.6 µM (inactive) | > 100 µM (inactive) | > 100 µM (inactive) | > 100 µM (inactive) | > 100 µM (inactive) | > 100 µM (inactive) | > 100 µM (inactive) | > 100 µM (inactive) | > 100 µM (inactive) | 97.7 µM (inactive) | > 100 µM (inactive) | > 100 µM (inactive) | > 100 µM (inactive) | 67.8 µM (inactive) | > 100 µM (inactive)
Cc1nn(C(=O)c2ccc(Cl)cc2)c2c1C(c1ccccc1O)SC(=N)N2 (stereo unspecified) | > 10 µM (inactive) | > 10 | > 10 µM (inactive) | > 10 µM (inactive) | > 10 µM (inactive) | > 10 µM (inactive) | > 10 µM (inactive) | > 10 µM (inactive) | – | > 10 µM (inactive) | > 10 µM (inactive) | > 10 µM (inactive) | > 10 µM (inactive) | > 10 µM (inactive) | > 10 µM (inactive) | > 10 µM (inactive) | > 10 µM (inactive) | > 10 µM (inactive) | > 10 µM (inactive)
Cc1nn(C(=O)c2ccncc2)c2c1C(c1cccc([N+](=O)[O-])c1)SC(=N)N2 (stereo unspecified) | > 10 µM (inactive) | > 10 | > 10 µM (inactive) | > 10 µM (inactive) | > 10 µM (inactive) | > 10 µM (inactive) | > 10 µM (inactive) | > 10 µM (inactive) | – | > 10 µM (inactive) | > 10 µM (inactive) | > 10 µM (inactive) | > 10 µM (inactive) | > 10 µM (inactive) | > 10 µM (inactive) | > 10 µM (inactive) | > 10 µM (inactive) | > 10 µM (inactive) | > 10 µM (inactive)
O=c1oc2ccccc2c(Nc2ccc3c(c2)Sc2ccccc2O3)c1[N+](=O)[O-] | 35.2 µM (inactive) | 25.1 | 26.3 µM (inactive) | 19.4 µM (inactive) | 18.5 µM (inactive) | 20.4 µM (inactive) | 26.2 µM (inactive) | 23.9 µM (inactive) | – | 30.8 µM (inactive) | 29.4 µM (inactive) | 28.9 µM (inactive) | 22.9 µM (inactive) | – | 19.6 µM (inactive) | 30.9 µM (inactive) | 20.5 µM (inactive) | 20.8 µM (inactive) | 26.1 µM (inactive)
COc1ccc2[nH]c3c(c2c1)CC(=O)N1CCC[C@H](C1)CC31OCCCO1 | > 100 µM (inactive) | > 100 | – | > 100 µM (inactive) | > 100 µM (inactive) | > 100 µM (inactive) | 92.7 µM (inactive) | > 100 µM (inactive) | > 100 µM (inactive) | > 100 µM (inactive) | > 100 µM (inactive) | > 100 µM (inactive) | > 100 µM (inactive) | – | > 100 µM (inactive) | 86.7 µM (inactive) | > 100 µM (inactive) | > 100 µM (inactive) | > 100 µM (inactive)
NCC1Nc2ccccc2[C@@H](O)C1O (stereo partly specified) | > 100 µM (inactive) | > 100 | > 100 µM (inactive) | > 100 µM (inactive) | > 100 µM (inactive) | > 100 µM (inactive) | > 100 µM (inactive) | > 100 µM (inactive) | – | > 100 µM (inactive) | > 100 µM (inactive) | > 100 µM (inactive) | > 100 µM (inactive) | > 100 µM (inactive) | > 100 µM (inactive) | > 100 µM (inactive) | > 100 µM (inactive) | > 100 µM (inactive) | > 100 µM (inactive)
CC(C)=NOC(=O)OC[C@H]1O[C@@H](n2cnc3c(N)ncnc32)C(O)C1O (stereo partly specified) | > 100 µM (inactive) | 72.1 | > 100 µM (inactive) | > 100 µM (inactive) | – | > 100 µM (inactive) | > 100 µM (inactive) | 85.3 µM (inactive) | > 100 µM (inactive) | > 100 µM (inactive) | > 100 µM (inactive) | > 100 µM (inactive) | > 100 µM (inactive) | > 100 µM (inactive) | > 100 µM (inactive) | > 100 µM (inactive) | > 100 µM (inactive) | > 100 µM (inactive) | –
